The data set in a line: Dependence of aminoboronate (closed) and boronic acid (open) forms on pH, 1H-NMR in D2O phosphate. The conditions noted are these: 0.4 M Na2HPO4 in D2O, three days in the dark, FIG. 1. Format: physicochemical. The protocol:
A 0.4 M stock solution of Na2HPO4 was prepared by dissolving 909 mg of salt in 16 mL of D2O. pH was adjusted to the desired value by dropwise addition of either […] in D2O or 5% DCl in D2O. The pH values were measured with a Fisher Scientific Accumet AB15 pH meter. Aliquots of the stock solution (4 mL) were prepared and 8 mg of compound 4 in the closed form (aminoboronate) were added to each one. The scintillation vials were capped, sealed with parafilm and allowed to stand in the dark for three days. After this time pH was measured again. The open/closed (i.e., linear/cyclic) ratio of compound 4 isomers at each pH was determined by recording the corresponding ^1H-NMR spectra in a Varian AS 500 MHz instrument and measuring the ratio of the integrals of the peaks at 2.90-2.95 ppm and 2.40-2.50 ppm characteristic of the open and closed forms, respectively.

One molecule from patent US8415295B2, “Heterocyclic boronic acid compounds” (Phenomix Corporation, priority 2003, dated 2013) can be followed below.

For `O=C(CNC1CCCC1)N1CCC[C@H]1B(O)O` [Compound 4, (2R)-1-(2-Cyclopentylamino-acetyl)-boroPro-OH], the “open/closed (linear/cyclic) ratio of isomers at each pH” value was “the closed form predominates at higher pHs such as physiological pH, whereas the open form predominates at lower pHs”.
